Laboratory results published in the supplement of paper PMC10307832.

Tests used:
Experiment in all cases: relative viability (nuclei count vs DMSO), 5 days (fraction); higher = more cells survive
[1] = compound: O=c1[nH]cc(F)c(=O)[nH]1 [5-Fluorouracil] + N=C(N)NC(=N)NCCc1ccccc1 [Phenformin] (partner 250 µM)
Procedure, shortened: (§1)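 Relative viability is defined as nuclei in treated wells over nuclei in vehicle wells. Duplicate plates were run and medians reported. Lung cancer cell lines in 1536-well plates were dosed by pin tool one day after seeding, with one drug or with a fixed anchor-drug dose plus five library-drug doses (not always all listed) in √10 steps, and nuclei were counted after 5 days.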

Sulindac + Palbociclib = compound: CC1=C(CC(=O)O)c2cc(F)ccc2/C1=C\c1ccc([S+](C)[O-])cc1 [Sulindac] + CC(=O)c1c(C)c2cnc(Nc3ccc(N4CCNCC4)cn3)nc2n(C2CCCC2)c1=O [Palbociclib] (partner 0.5 µM)
Procedure, shortened: as §1

Sulindac + Bortezomib = compound: CC1=C(CC(=O)O)c2cc(F)ccc2/C1=C\c1ccc([S+](C)[O-])cc1 [Sulindac] + CC(C)C[C@H](NC(=O)[C@H](Cc1ccccc1)NC(=O)c1cnccn1)B(O)O [Bortezomib] (partner 0.002 µM)
Procedure, shortened: as §1

Sulindac + Dasatinib = compound: CC1=C(CC(=O)O)c2cc(F)ccc2/C1=C\c1ccc([S+](C)[O-])cc1 [Sulindac] + Cc1nc(Nc2ncc(C(=O)Nc3c(C)cccc3Cl)s2)cc(N2CCN(CCO)CC2)n1 [Dasatinib] (partner 0.075 µM)
Procedure, shortened: as §1

UMC-11 gave a relative viability ([1]; first compound 0.02 µM) of 0.368, a relative viability ([1]; first compound 0.2 µM) of 0.308 and a relative viability ([1]; first compound 0.6325 µM) of 0.326. It also gave a relative viability ([1]; first compound 2 µM) of 0.339, a relative viability (Sulindac + Palbociclib; first compound 0.08 µM) of 0.304 and a relative viability (Sulindac + Palbociclib; first compound 0.253 µM) of 0.333. It also gave a relative viability (Sulindac + Palbociclib; first compound 0.8 µM) of 0.318, a relative viability (Sulindac + Palbociclib; first compound 2.53 µM) of 0.328 and a relative viability (Sulindac + Palbociclib; first compound 8 µM) of 0.364. It also gave a relative viability (Sulindac + Bortezomib; first compound 0.08 µM) of 0.952, a relative viability (Sulindac + Bortezomib; first compound 0.253 µM) of 0.996 and a relative viability (Sulindac + Bortezomib; first compound 0.8 µM) of 0.359. The relative viability (Sulindac + Bortezomib; first compound 2.53 µM) was 0.703, the relative viability (Sulindac + Bortezomib; first compound 8 µM) was 0.846 and the relative viability (Sulindac + Dasatinib; first compound 0.08 µM) was 0.613. The relative viability (Sulindac + Dasatinib; first compound 0.253 µM) was 0.531, the relative viability (Sulindac + Dasatinib; first compound 0.8 µM) was 0.362 and the relative viability (Sulindac + Dasatinib; first compound 2.53 µM) was 0.46. It also gave a relative viability (Sulindac + Dasatinib; first compound 8 µM) of 0.507.
